According to patent US8092020B2 (priority 2002, dated 2012):

Columns and labels:
Sprague-Dawley rat [1] = conditions: in vivo
Hemoglobin (Hgb) = Hemoglobin (Hgb) (Homo sapiens, UniProt P68871+P69905); conditions: cited from earlier work
Sprague-Dawley rat [2] = conditions: in vivo, ip
Sprague-Dawley rat [3] = conditions: in vivo, ip; remark: listed apart in the source

Hemoglobin (Hgb), sequence (P68871 2-147): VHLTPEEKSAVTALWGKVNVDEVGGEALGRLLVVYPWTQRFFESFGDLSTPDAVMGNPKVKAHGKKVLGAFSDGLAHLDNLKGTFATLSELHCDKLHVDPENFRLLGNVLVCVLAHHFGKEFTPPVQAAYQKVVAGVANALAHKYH
Hemoglobin (Hgb), sequence (P69905 2-142): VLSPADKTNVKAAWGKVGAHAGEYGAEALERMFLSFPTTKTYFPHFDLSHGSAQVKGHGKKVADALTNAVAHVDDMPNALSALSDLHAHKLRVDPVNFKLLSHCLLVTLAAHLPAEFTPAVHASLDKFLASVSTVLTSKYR

Compound	concentration causing significant changes in both arterial and venous coloration (Sprague-Dawley rat [1])	extrapolated EC50 for fundal artery coloration changes (Sprague-Dawley rat [1])	lowest level with statistically significant arterial coloration changes (p<0.05) (Sprague-Dawley rat [1])	maximal observed change in arterial coloration in all animals (Sprague-Dawley rat [1])	near maximal change in arterial coloration in animals which did not expire (Sprague-Dawley rat [1])	affinity of Hgb for CO relative to that for oxygen (Hemoglobin (Hgb))	lowest dose with statistically significant decreases in the pupillary light reflex (p<0.05) (Sprague-Dawley rat [2])	time to animal expiration post-injection (Sprague-Dawley rat [3])
[C-]#[O+] [CO, Carbon monoxide]	≥ 500 ppm	289±37 ppm	250 ppm	38.5%	92.3%	200-250 times greater		
botulinum toxin							1e-05 µg/kg	at least 14 hours
